ChEMBL document CHEMBL3046414, “Synthesis, anticancer, anti-HIV-1, and antimicrobial activity of some tricyclic triazino and triazolo[4,3-e]purine derivatives” (Med Chem Res, 2012)
Values after ≈ are worked out from the molar mass of the structure shown.

Tests used:
[1] = test system: Escherichia coli; assay: Antimicrobial activity against Escherichia coli 5933 after 24 hr by agar cup diffusion technique; assay type: functional
[2] = test system: Candida albicans; assay: Antimicrobial activity against Candida albicans NCTC 2708 after 48 hr by agar cup diffusion technique; assay type: functional
[3] = test system: Staphylococcus aureus; assay: Antimicrobial activity against Staphylococcus aureus NCTC 4163 after 24 hr by agar cup diffusion technique; assay type: functional
[4] = test system: Pseudomonas aeruginosa; assay: Antimicrobial activity against Pseudomonas aeruginosa ATCC 9027 after 24 hr by agar cup diffusion technique; assay type: functional
[5] = test system: Saccharomyces cerevisiae; assay: Antimicrobial activity against Saccharomyces cerevisiae ATCC 9763 after 48 hr by agar cup diffusion technique; assay type: functional
[6] = test system: Staphylococcus aureus; assay: Antimicrobial activity against Staphylococcus aureus NCTC 4163 after 24 hr by two-fold serial dilution method; assay type: functional; details: NCTC 4163, 24 h
[7] = test system: Human immunodeficiency virus 1; assay: Antiviral activity against Human immunodeficiency virus 1 infected CEM cells assessed as inhibition of virus-induced cytopathic effect at 2 X 10^-4 M by XTT assay; assay type: functional; details: Human immunodeficiency virus 1, CCRF-CEM
[8] = test system: Proteus vulgaris; assay: Antimicrobial activity against Proteus vulgaris ATCC 49132 after 24 hr by agar cup diffusion technique; assay type: functional
[9] = test system: CCRF-CEM; assay: Cytotoxicity against Homo sapiens (human) CEM cells by XTT assay; assay type: cell-based
[10] = test system: Bacillus spizizenii; assay: Antimicrobial activity against Bacillus subtilis subsp. spizizenii ATCC 6633 after 24 hr by agar cup diffusion technique; assay type: functional
[11] = test system: NCI-H460; assay: Anticancer activity against Homo sapiens (human) NCI-H460 cells assessed as cell growth at 100 uM after 48 hr by Alamar blue assay; assay type: functional; details: NCI-H460, 48 h, read-out: Activity
[12] = test system: SF-268; assay: Anticancer activity against Homo sapiens (human) SF268 cells assessed as cell growth at 100 uM after 48 hr by Alamar blue assay; assay type: functional; details: SF-268, 48 h, read-out: Activity
[13] = test system: Pseudomonas aeruginosa; assay: Antimicrobial activity against Pseudomonas aeruginosa ATCC 9027 after 24 hr by two-fold serial dilution method; assay type: functional; details: ATCC 9027, 24 h
[14] = test system: MCF7; assay: Anticancer activity against Homo sapiens (human) MCF7 cells assessed as cell growth at 100 uM after 48 hr by Alamar blue assay; assay type: functional; details: MCF7, 48 h, read-out: Activity
[15] = test system: Proteus vulgaris; assay: Antimicrobial activity against Proteus vulgaris ATCC 49132 after 24 hr by two-fold serial dilution method; assay type: functional; details: ATCC 49132, 24 h
[16] = test system: Aspergillus niger; assay: Antimicrobial activity against Aspergillus niger ATCC 16404 after 48 hr by agar cup diffusion technique; assay type: functional
[17] = test system: Salmonella typhi; assay: Antimicrobial activity against Salmonella enterica subsp. enterica serovar Typhi ATCC 13311 after 24 hr by agar cup diffusion technique; assay type: functional
[18] = test system: Aspergillus terreus; assay: Antimicrobial activity against Aspergillus terreus after 48 hr by agar cup diffusion technique; assay type: functional
[19] = test system: Bacillus spizizenii; assay: Antimicrobial activity against Bacillus subtilis subsp. spizizenii ATCC 6633 after 24 hr by two-fold serial dilution method; assay type: functional; details: ATCC 6633, 24 h
[20] = test system: Escherichia coli; assay: Antimicrobial activity against Escherichia coli 5933 after 24 hr by two-fold serial dilution method; assay type: functional; details: Escherichia coli, 5933, 24 h
[21] = test system: Saccharomyces cerevisiae; assay: Antimicrobial activity against Saccharomyces cerevisiae ATCC 9763 after 48 hr by two-fold serial dilution method; assay type: functional; details: ATCC 9763, 48 h
[22] = test system: Candida albicans; assay: Antimicrobial activity against Candida albicans NCTC 2708 after 48 hr by two-fold serial dilution method; assay type: functional; details: NCTC 2708, 48 h
[23] = test system: Aspergillus niger; assay: Antimicrobial activity against Aspergillus niger ATCC 16404 after 48 hr by two-fold serial dilution method; assay type: functional; details: ATCC 16404, 48 h
[24] = test system: Aspergillus terreus; assay: Antimicrobial activity against Aspergillus terreus after 48 hr by two-fold serial dilution method; assay type: functional

Cn1c(=O)c2c(n(C)c1=O)n1c(SCc3ccccc3)nnc1n2C
inhibition zone (IZ) [1]: 12 mm
inhibition zone (IZ) [2]: 11 mm
inhibition zone (IZ) [3]: 26 mm
inhibition zone (IZ) [4]: 19 mm
inhibition zone (IZ) [5]: 14 mm
MIC [6]: < 25 µg/mL
inhibition at 200 µM [7]: 35.5%
inhibition zone (IZ) [8]: 18 mm
IC50 [9]: > 200 µM

Cn1c(=O)c2[nH]c(/N=N/c3c(N)n[nH]c3N)nc2n(C)c1=O
inhibition zone (IZ) [10]: 10 mm
inhibition zone (IZ) [2]: 11 mm
inhibition zone (IZ) [5]: 12 mm
inhibition at 200 µM [7]: 30.5%
inhibition zone (IZ) [8]: 14 mm
IC50 [9]: > 200 µM

Cn1c(=O)c2c(n(C)c1=O)n1c(-c3ccc(Cl)cc3)nnc1n2C
growth at 100 µM [11]: 95%
inhibition zone (IZ) [1]: 12 mm
inhibition zone (IZ) [10]: 13 mm
inhibition zone (IZ) [2]: 12 mm
inhibition zone (IZ) [3]: 22 mm
growth at 100 µM [12]: 90%
inhibition zone (IZ) [4]: 21 mm
inhibition zone (IZ) [5]: 14 mm
MIC [6]: < 100 µg/mL
MIC [13]: < 200 µg/mL
growth at 100 µM [14]: 82%
inhibition zone (IZ) [8]: 25 mm
MIC [15]: < 100 µg/mL

Cn1c(=O)c2c(n(C)c1=O)n1c(-c3ccccc3)nnc1n2C
inhibition zone (IZ) [16]: 16 mm
growth at 100 µM [11]: 98%
inhibition zone (IZ) [1]: 14 mm
inhibition zone (IZ) [10]: 15 mm
inhibition zone (IZ) [2]: 12 mm
growth at 100 µM [12]: 90%
inhibition zone (IZ) [4]: 17 mm
inhibition zone (IZ) [5]: 15 mm
inhibition zone (IZ) [17]: 11 mm
growth at 100 µM [14]: 84%
inhibition zone (IZ) [8]: 19 mm

Cn1c(=O)c2nc3[nH]nc(C#N)c(=O)n3c2n(C)c1=O
inhibition zone (IZ) [1]: 12 mm
inhibition zone (IZ) [2]: 15 mm
inhibition zone (IZ) [3]: 14 mm
inhibition zone (IZ) [4]: 16 mm
inhibition zone (IZ) [5]: 14 mm
inhibition at 200 µM [7]: 10.9%
inhibition zone (IZ) [8]: 22 mm
IC50 [9]: > 200 µM
MIC [15]: < 100 µg/mL

COc1ccc(-c2nnc3n(C)c4c(=O)n(C)c(=O)n(C)c4n23)cc1
inhibition zone (IZ) [1]: 20 mm
inhibition zone (IZ) [10]: 20 mm
inhibition zone (IZ) [2]: 18 mm
inhibition zone (IZ) [3]: 14 mm
inhibition zone (IZ) [18]: 16 mm
inhibition zone (IZ) [4]: 21 mm
inhibition zone (IZ) [5]: 16 mm
MIC [19]: < 200 µg/mL
inhibition zone (IZ) [17]: 17 mm
MIC [20]: < 200 µg/mL
MIC [13]: < 200 µg/mL
inhibition zone (IZ) [8]: 28 mm
MIC [15]: < 50 µg/mL

CSc1nnc2n(C)c3c(=O)n(C)c(=O)n(C)c3n12
inhibition zone (IZ) [1]: 12 mm
inhibition zone (IZ) [2]: 11 mm
inhibition zone (IZ) [3]: 20 mm
inhibition zone (IZ) [4]: 20 mm
inhibition zone (IZ) [5]: 12 mm
MIC [6]: < 200 µg/mL
MIC [13]: < 200 µg/mL
inhibition at 200 µM [7]: 4.86%
inhibition zone (IZ) [8]: 19 mm
IC50 [9]: > 200 µM

Clc1ccccc1C(c1ccccc1)(c1ccccc1)n1ccnc1 [CLOTRIMAZOLE]
MIC [21]: 5 µg/mL (≈ 14.5 µM)
MIC [22]: 5 µg/mL (≈ 14.5 µM)
MIC [23]: 10 µg/mL (≈ 29 µM)
MIC [24]: 10 µg/mL (≈ 29 µM)
